This is an account of results in patent US9139638B2, “Mouse model of cholinergic dysfunction to evaluate cognitive enhancers and drugs that improve myasthenia” (priority 2006, dated 2015).

In the assay the test system is VAChT KD^HOM mice. As to the kind of experiment: Grip force test in VAChT KD^HOM mice. As to conditions: pyridostigmine i.p. 1 mg/kg, 30 min prior to the test, FIG. 4B, p<0.05. The assay is classed as in vivo. Here is the method: To evaluate whether the alterations detected in neuromuscular transmission may affect neuromuscular function, we tested the performance of wild-type and mutant mice in motor tasks (FIG. 4). The wire-hang experiments were conducted as described (Sango et al. (1996) Mice lacking both subunits of lysosomal beta-hexosaminidase display gangliosidosis and mucopolysaccharidosis. Nat. Genet. 14:348-352) and time spent hanging upside down was determined with a cut-off time of 60 sec.
To measure grip force, we used a custom built force transducer connected to a small support that could be grasped by the mouse as described (Fowler et al. (2002) Motor and associative deficits in D2 dopamine receptor knockout mice. Int. J. Dev. Neurosci. 20:309-321). Five tests were performed per mouse with a maximum period of 50 sec for each animal over two different days. The force transducer was coupled to a computer and a routine was developed to record the maximal grip-force exerted. By comparison, VAChT KD^HET mice present no deficit in neuromuscular function as assessed in this test. Importantly, reduced grip-strength in VAChT KD^HOM mice was improved by prior injection of one of three cholinesterase inhibitors: pyridostigmine (i.p. 1 mg/kg), galantamine (s.c. 1 mg/kg) or physostigmine (i.p., 0.3 mg/kg), (FIG. 4B, F(3,47)=8.323 p<0.05). […]

Take `CN(C)C(=O)Oc1ccc[n+](C)c1` [pyridostigmine]: the “grip-strength (maximal grip-force)” value is “improved”.
